pIC50: −log10 of the molar value.
What was measured:
[1] = test system: pERK in mutant BRAF WM266.4 cells; assay: Assay B - cell based phospho-ERK assay; settings: Homo sapiens, WM 266-4, 6 hours incubation
Description: (§1) Values for the blank (Empty Vector) are subtracted from all values. The DMSO controls are set as 100% activity and assay points (the response) are calculated as a percentage of the DMSO control. Data are plotted using Graphpad Prism software and a non-linear regression line is calculated using a variable slope sigmoidal dose-response equation: Y=Bottom+[Top−Bottom]/[1+10^((Log EC50−X)*HillSlope)] where X is the logarithm of concentration and Y is the response. The IC50 generated by this procedure is the concentration of the drug that produces a percentage control fluorescence value midway between the saturation, and zero-effect plateaus. Three independent assays are usually performed and the mean IC50 is reported. Biological Methods—Assay B—Cell Based Phosho-ERK Assay
Compounds were assessed using a cell-based assay which was performed according to the following protocol.
Plate out 16,000 mutant BRAF WM266.4 cells/well in 99 μL medium in a 96-well plate.
1. Add 1 μL inhibitor (test compound) to the cells (total […]).
2. Incubate the cells with test compound for 6 hours at 37° C.
3. Aspirate off the solution from all of the wells.
4. Fixate the cells with 100 μL 4% formaldehyde/0.25% Triton X-100 PBS per well.
5. Incubate the plate for 1 hour at 4° C.
6. Aspirate off the fixing solution and add 300 μL TBS per well.
7. Leave the plate overnight at 4° C.
1. Wash the plate 2× with 200 μL PBS per well.
2. Block with 100 μL 5% dried milk in TBS.
3. Incubate the plate for 20 minutes at 37° C.
4. Wash the plate 2× with 0.1% tween/H2O.
5. Add 50 μL of 3 μg/mL primary antibody pERK (Sigma M8159), diluted in 5% milk powder/TBS, to each well.
6. Incubate the plate for 2 hours at 37° C.
7. Wash the plate 3× with 0.1% tween/H2O.
8. Add 50 μL of 0.45 μg/mL secondary Europium-labelled anti-mouse antibody (Perkin Elmer) to each well.
9. Incubate the plate for 1 hour at 37° C.
10. Wash the plate 3× with 0.1% tween/H2O.
11. Add 100 μL enhancement solution (Perkin Elmer) to each well.
12. Leave the plate for approximately 10 minutes at room temperature before gently shaking the plate.
13. Read Europium Time Resolved Fluorescence in Victor2.
14. Wash the plate 2× with 0.1% tween/H2O.
15. Measure the protein concentration with BCA (Sigma) by adding 200 μL of solution per well.
16. Incubate the plate for 30 minutes at 37° C.
17. Read absorbance levels at 570 nm in a plate reader.
Note that Europium counts are normalised for protein levels by dividing counts by absorbance.
as §1, with “blank (no cells)” for “blank (Empty Vector)”, “the response).” for “the response.”, “Methods—Assay C—SRB Cell Proliferation” for “Methods—Assay B—Cell Based Phosho-ERK”, “Assay (SRB GI50)” for “Assay”

[2] = test system: WM266.4 melanoma cell line (mutant BRAF); assay: Assay C - SRB cell proliferation assay, WM266.4; type: cell-based; settings: Homo sapiens, WM 266-4, 120 h; WM266.4, 5 days growth
Description: as §1, with “blank (no cells)” for “blank (Empty Vector)”, “the response).” for “the response.”, “Methods—Assay C—SRB Cell Proliferation” for “Methods—Assay B—Cell Based Phosho-ERK”, “Assay (SRB GI50)” for “Assay”
(§2) Cell lines (e.g., WM266.4 and A375M melanoma cell lines; SW620 colorectal carcinoma cell line) are routinely cultured in DMEM or RPMI1640 supplemented with 10% foetal bovine serum, at 37° C., in 10% CO2 water saturated atmosphere. Cultures are maintained in exponential growth phase by sub-culturing before having become confluent (3-5 day intervals). Single cell suspensions are prepared by harvesting an 80 cm^2 tissue culture flask with 5 mL commercial trypsin EDTA. After 5 minutes, the detached cells are mixed with 5 mL fully complemented culture medium and centrifugally pelleted (1000 rpm for 7 minutes). After aspirating the supernatant, the cell pellet is re-suspended in 10 mL fresh medium and the cells fully disaggregated by drawing the whole volume up/down 5 times through a 19-gauge needle. The concentration of the cells is determined using a haemocytometer ( 1/10 dilution). A suitable volume to give at least a 2-fold excess for the number of tests being conducted, typically 100-200 mL, is prepared by diluting the cell suspension to 10,000-40,000/mL, and 100 μL/well dispensed into 96 well plates using a programmable 8-channel peristaltic pump, giving 1000-4000 cells/well, leaving column 12 blank. The plates are returned to the incubator for 24 hours to allow the cells to re-attach.
(§3) The compounds being tested are prepared at 10 mM in DMSO. Aliquots (24 μL) are diluted into 1.2 mL culture medium giving 200 μM, and 10 serial dilutions of 3× performed by transferring 80 μL to 160 μL. Aliquots (100 μL) of each dilution are added to the wells, using an 8-channel pipettor, thus performing a final further 2× dilution, and giving doses ranging from 100 μM to 0.005 μM. Column 11 receives plain culture medium only. Each compound is tested in quadruplicate, each replicate being the average of four wells.
(§4) After a further 5 days growth, the plates are emptied, and the cells are fixed in 10% trichloroacteic acid for 30 minutes at 4° C. After thorough rinsing in running tap water, the plates are dried, and stained by adding 50 μL of a solution of 0.1% sulphorhodamine-B in 1% acetic acid, for 10 minutes at room temperature. The stain is poured out and the plates thoroughly rinsed under a stream of 1% acetic acid, thus removing unbound stain, and dried. The bound stain is taken into solution by addition of 100 μL Tris buffer pH 8, followed by 10 minutes on a plate-shaker (approximately 500 rpm). The absorbance at 540 nm in each well (being proportional to the number of cells present) is determined using a plate reader.
(§5) After averaging the blank values in column 12 this was subtracted from all values, and results expressed as a percentage of the untreated value (column 11). […] The GI50 generated by this procedure is the concentration of the drug that produces a percentage control A540 midway between the saturation, and zero-effect plateaus.

[3] = test system: A375M melanoma cell line (mutant BRAF); assay: Assay C - SRB cell proliferation assay, A375M; type: cell-based; settings: Homo sapiens, 120 h, 5 days growth
Description: as §1, with “blank (no cells)” for “blank (Empty Vector)”, “the response).” for “the response.”, “Methods—Assay C—SRB Cell Proliferation” for “Methods—Assay B—Cell Based Phosho-ERK”, “Assay (SRB GI50)” for “Assay”
as §2, §3, §4, §5

[4] = test system: SW620 colorectal carcinoma cell line (mutant RAS); assay: Assay C - SRB cell proliferation assay, SW620; type: cell-based; settings: Homo sapiens, SW-620, 120 h; SW620, 5 days growth
Description: as §1, with “blank (no cells)” for “blank (Empty Vector)”, “the response).” for “the response.”, “Methods—Assay C—SRB Cell Proliferation” for “Methods—Assay B—Cell Based Phosho-ERK”, “Assay (SRB GI50)” for “Assay”
as §2, §3, §4, §5

Row | pIC50 [1] | GI50 [2] | GI50 [3] | GI50 [4] | SMILES
1 | 7.72 | 8 nM | 52 nM | 1600 nM | Cn1c(=O)[nH]c2nccc(Oc3ccc(NC(=O)Nc4cc(C(C)(C)C)nn4-c4ccccc4)c4ccccc34)c21 [BB-01, 1-(3-Tert-butyl-1-phenyl-1H-pyrazol-5-yl)-3-(4-(1-methyl-2-oxo-2,3-dihydro-1H-imidazo[4,5-b]pyridin-7-yloxy)naphthalen-1-yl)urea]
2 | 6.21 | 390 nM | 1130 nM | 840 nM | CC(C)(C)c1cc(NC(=O)Nc2ccc(Oc3ccnc4[nH]c(=O)[nH]c34)cc2)n(-c2ccccc2)n1 [XX-01, 1-(5-Tert-butyl-2-phenyl-2H-pyrazol-3-yl)-3-[4-(2-oxo-2,3-dihydro-1H-imidazo[4,5-b]pyridin-7-yloxy)-phenyl]-urea]
3 | 6.59 | 52 nM | 138 nM | 167 nM | Cn1c(=O)[nH]c2nccc(Oc3ccc(NC(=O)Nc4cc(C(C)(C)C)nn4-c4ccccc4)c(F)c3)c21 [AA-01, 1-(3-Tert-butyl-1-phenyl-1H-pyrazol-5-yl)-3-(2-fluoro-4-(1-N-methyl-2-oxo-2,3-dihydro-1H-imidazo[4,5-b]pyridin-7-yloxy)phenyl)urea]
4 | 7.59 | 16 nM | 101 nM | 1680 nM | Cc1ccc(-n2nc(C(C)(C)C)cc2NC(=O)Nc2ccc(Oc3ccnc4[nH]c(=O)n(C)c34)c3ccccc23)cc1 [BB-02, 1-(1-N-p-tolyl-3-tert-butyl-pyrazol-5-yl)-3-(4-(2-oxo-2,3-dihydro-1-N-methyl-1H-imidazo[4,5-b]pyridin-7-yl-oxy)naphthalen-1-yl)urea]
5 | 6.92 | 33 nM | 247 nM | 6830 nM | Cn1c(=O)n(C)c2c(Oc3ccc(NC(=O)Nc4cc(C(C)(C)C)nn4-c4ccccc4)c(F)c3)ccnc21 [XX-03, 1-(3-Tert-butyl-1-phenyl-1H-pyrazol-5-yl)-3-(4-(1,3-dimethyl-2-oxo-2,3-dihydro-1H-imidazo[4,5-b]pyridin-7-yloxy)-2-fluorophenyl)urea]
6 | 7.05 | 66 nM | 250 nM | 450 nM | Cc1ccc(-n2nc(C(C)(C)C)cc2NC(=O)Nc2ccc(Oc3ccnc4[nH]c(=O)n(C)c34)cc2)cc1 [XX-02, 1-(1-N-p-tolyl-3-tert-butyl-pyrazol-5-yl)-3-(4-(2-oxo-2,3-dihydro-1-N-methyl-1H-imidazo[4,5-b]pyridin-7-yl-oxy)phenyl)urea]
7 | 6.70 | 20 nM | 307 nM | 2720 nM | CC(C)(C)c1cc(NC(=O)Nc2ccc(Oc3ccnc4[nH]c(=O)[nH]c34)cc2)n(-c2ccc(F)cc2)n1 [XX-04, 1-[5-tert-Butyl-2-(4-fluoro-phenyl)-2H-pyrazol-3-yl]-3-[4-(2-oxo-2,3-dihydro-1H-imidazo[4,5-b]pyridin-7-yloxy)-phenyl]urea]
